How the values were obtained:
[1] = tested on: T6-17 (HER2/neu expressing cells); assay: Standard MTT assay, T6-17 cells; format: cell-based; conditions: listed as CD4.M3
Jurkat cells = assay: Standard MTT assay, Jurkat cells; format: cell-based; conditions: listed as CD4.M3

Substance: [Cys^3-Cys^12]-HAbuFCYIGEVEDQCY-OH (disulfide) [CD4, reference compound]
- % inhibition of cell growth [1]: unaffected
- % inhibition of cell growth (Jurkat cells): unaffected
